Numbers after ± are expanded uncertainties.
Settings: for Normal melting temperature: Crystal

Normal melting temperature (visual observation) | Glass transition temperature (DTA) | Normal melting temperature (DTA) | Compound
108.00 ± 5 °C | 27.50 ± 5 °C | – | C=CC[n+]1cccc(C)c1.[Cl-] [1-allyl-3-methylpyridinium chloride]
97.00 ± 5 °C | 35.00 ± 5 °C | 93.00 ± 5 °C | CCCC[n+]1cccc(C)c1.[Cl-] [1-butyl-3-methylpyridinium chloride]
163.00 ± 5 °C | – | 146.00 ± 5 °C | CC[n+]1cccc(C)c1.[Br-] [1-ethyl-3-methylpyridinium bromide]
130.00 ± 5 °C | 29.00 ± 5 °C | – | CC[n+]1cccc(C)c1.[Cl-] [1-ethyl-3-methylpyridinium chloride]
72.00 ± 5 °C | 16.50 ± 5 °C | – | CCCCCCC[n+]1cccc(C)c1.[Cl-] [1-heptyl-3-methylpyridinium chloride]
77.00 ± 5 °C | – | 62.00 ± 5 °C | CCCCCC[n+]1cccc(C)c1.[Cl-] [1-hexyl-3-methylpyridinium chloride]
64.00 ± 5 °C | – | – | CCCCCCCCC[n+]1cccc(C)c1.[Cl-] [1-nonyl-3-methylpyridinium chloride]
74.00 ± 5 °C | – | 69.00 ± 5 °C | CCCCCCCC[n+]1cccc(C)c1.[Cl-] [1-octyl-3-methylpyridinium chloride]
92.00 ± 5 °C | 21.50 ± 5 °C | – | CCCCC[n+]1cccc(C)c1.[Cl-] [1-pentyl-3-methylpyridinium chloride]
92.00 ± 5 °C | 18.50 ± 5 °C | – | CCC[n+]1cccc(C)c1.[Cl-] [1-propyl-3-methylpyridinium chloride]

Compound | Normal melting temperature (visual observation) | Glass transition temperature (DTA) | Normal melting temperature (DTA)
CCCCCCCCCC[n+]1cccc(C)c1.[Cl-] [1-decyl-3-methylpyridinium chloride] | 64.00 ± 5 °C | – | 55.00 ± 5 °C

Reference: the NIST ThermoML archive (doi:10.1016/j.tca.2013.06.022)
